According to PMC4784888, “Activity Based High-Throughput Screening for Novel O-GlcNAc Transferase Substrates Using a Dynamic Peptide Microarray” (PLoS ONE, 2016):

Assays:
Format in all cases: biochemical, human
[1] = system: s-OGT; assay: O-GlcNAcylation on nuclear hormone receptor interaction peptide microarray, s-OGT; conditions: bacterial lysate containing s-OGT (7 μg/μL), 1 mM UDP-GlcNAc, 50 mM Tris-HCl pH 7.5, 30°C, FITC antibody fluorescence, corrected for signal without UDP-GlcNAc
Experimental: (§1) Plasmids encoding s-OGT, m-OGT, and nc-OGT are generous gifts from John A. Hanover (National Institute of Health, USA). OGT overexpression was carried out as previously described. All the plasmids were transformed into E.coli BL21 (DE3) competent cells to produce a cell lysate containing OGT for use or for further purification. Briefly, inoculated a single colony into 50 ml of LB broth media containing 50 μg/ml ampicillin and cells were grown overnight at 37°C with vigorous shaking. 50 mL of the start culture was added into 1L LB broth media containing 50 μg/mL ampicillin and it was incubated with shaking at 200 rpm at 37°C until A600 reached 0.4–0.6. After the culture was cooled to room temperature, 0.5 mM IPTG was added into the culture to induce protein expression. After 16 hours, the cells were collected by centrifugation for 10 min at 4000 RPM at 4°C. The pellets were lysed in lysis buffer containing 20 mM Tris-HCl, pH 7.5, 1 mg/mL lysome, 0.1% triton x-100 and complete mini EDTA-free protease inhibitor cocktail on ice for 10 min and the lysate was sonicated until the DNA was completely sheared. After centrifugation for 10 min at 12000 rpm at 4°C, the supernatant was carefully transferred into a clean tube and was ready for the array assay or for further purification. Protein expression was determined by coomassie blue staining and western blotting using an anti-OGT antibody.
(§2) Peptide O-GlcNAcylation was assessed using PamChip 4 microarray chips with a PamStation 12 instrument (Pamgene international, The Netherlands). The OGT enzyme reaction was prepared essentially as described[26] with minor modifications. Briefly, before addition of the enzyme reaction, the microarray was blocked with blocking buffer (1% BSA in TBS). After 30 cycles (2 cycles/min) blocking, the blocking buffer was aspirated and the microarray was incubated with 40 μL of the enzyme reaction containing OGT (lysate or purified), OGT reaction buffer (50 mM Tris—HCl, pH 7.5;1 mM DTT;12.5 mM MgCl2), a 1:1 pre-incubated mixture of anti-O-GlcNAc and FITC conjugated secondary antibody, and the sugar donor UDP-GlcNAc or water as a control for 480 cycles (2 cycles/min) at 30°C. The microarray was run in parallel by pumping the reaction up and down through the porous membrane at every cycle and a tiff image was obtained at every 20 cycles by a CCD camera inside the PamStation. O-GlcNAcylation of each peptide was detected by a fluorescent signal which was produced by an FITC conjugated antibody bound to the O-GlcNAc moiety on the peptide.
(§3) Image analysis was performed using BioNavigator 6 software (Pamgene international, The Netherlands). Briefly, each image was quantified by automated array grid finding and subsequent quantification of signal and local background for each individual spot. In this work, the signal median-minus-background value was used as the quantitative parameter for the O-GlcNAcylation of the peptide.
(§4) Dynamic peptide microarray (PamChip) technology has been successfully and widely used for kinase activities profiling in the last decade. In the present work, we describe, for the first time, the utility of this peptide microarray format for the identification of human OGT activity. Due to the fact that O-GlcNAcylation and phosphorylation may occur at the same or proximal amino acids on the same protein [9], a peptide microarray of 144 peptides derived from different kinase substrates (S1 Appendix) was selected for an initial test. […] O-GlcNAcylation of peptides in each individual spot was detected by a fluorescent signal produced by the FITC labelled antibody recognizing the O-GlcNAcylated amino acids of converted peptides. Kinetic activity was measured through scanning the signal at regular intervals.
(§5) Fig 2 Identification of human OGT substrates from a kinase substrate and nuclear hormone receptor interaction peptide microarray. […]

[2] = system: m-OGT; assay: O-GlcNAcylation on nuclear hormone receptor interaction peptide microarray, m-OGT; conditions: bacterial lysate containing m-OGT (7 μg/μL), 1 mM UDP-GlcNAc, 50 mM Tris-HCl pH 7.5, 30°C, FITC antibody fluorescence, corrected for signal without UDP-GlcNAc
Experimental: as §1, §2, §3, §4, §5

[3] = system: nc-OGT; assay: O-GlcNAcylation on nuclear hormone receptor interaction peptide microarray, nc-OGT; conditions: bacterial lysate containing nc-OGT (7 μg/μL), 1 mM UDP-GlcNAc, 50 mM Tris-HCl pH 7.5, 30°C, FITC antibody fluorescence, corrected for signal without UDP-GlcNAc
Experimental: as §1, §2, §3, §4, §5

[4] = system: OGT (s-OGT, m-OGT, nc-OGT); assay: O-GlcNAcylation on nuclear hormone receptor interaction peptide microarray, three isoforms taken together; conditions: for identification in microarray assay: nuclear receptor interaction peptide microarray; for O-GlcNAcylation by three isoforms: nuclear hormone receptor interaction microarray, bacterial lysates s-, m-, nc-OGT, 1 mM UDP-GlcNAc
Experimental: as §1, §2, §3
as §4, with “activity.” for “activity. Due to the fact that O-GlcNAcylation and phosphorylation may occur at the same or proximal amino acids on the same protein [9], a peptide microarray of 144 peptides derived from different kinase substrates (S1 Appendix) was selected for an initial test.”, “intervals. […]” for “intervals.”

[5] = system: s-OGT; assay: O-GlcNAcylation on kinase substrate peptide microarray, s-OGT; conditions: bacterial lysate containing s-OGT (7 μg/μL), 1 mM UDP-GlcNAc, 50 mM Tris-HCl pH 7.5, 30°C, FITC antibody fluorescence, corrected for signal without UDP-GlcNAc
Experimental: as §1, §2, §3, §4, §5

[6] = system: m-OGT; assay: O-GlcNAcylation on kinase substrate peptide microarray, m-OGT; conditions: bacterial lysate containing m-OGT (7 μg/μL), 1 mM UDP-GlcNAc, 50 mM Tris-HCl pH 7.5, 30°C, FITC antibody fluorescence, corrected for signal without UDP-GlcNAc
Experimental: as §1, §2, §3, §4, §5

[7] = system: nc-OGT; assay: O-GlcNAcylation on kinase substrate peptide microarray, nc-OGT; conditions: bacterial lysate containing nc-OGT (7 μg/μL), 1 mM UDP-GlcNAc, 50 mM Tris-HCl pH 7.5, 30°C, FITC antibody fluorescence, corrected for signal without UDP-GlcNAc
Experimental: as §1, §2, §3, §4, §5

Sequence	OGT isoforms activity, s [1]	OGT isoforms activity, nc [3]	identification in microarray assay [4]	OGT isoforms activity, m [6]	OGT isoforms activity, m [2]	OGT isoforms activity, s [5]	OGT isoforms activity, nc [7]	O-GlcNAcylation by three isoforms [4]
HGSQNRPLLRNSLDDLLGPPSNA [NCOA3_MOUSE_1029_1051]	N (otherwise negative)	P (Signal greater than 5% of the highest signal was defined as positive)			N (otherwise negative)			
SDTLPEVSAIPISLDGLLFPRPS [PRGR_42_64_C64S]	P (Signal greater than 5% of the highest signal was defined as positive)	N (otherwise negative)			P (Signal greater than 5% of the highest signal was defined as positive)			
GLGRSITSPTTLY [RBL-2_655_667, kinase substrate microarray peptide …]				P (Signal greater than 5% of the highest signal was defined as positive (P))		P (Signal greater than 5% of the highest signal was defined as positive (P))	P (Signal greater than 5% of the highest signal was defined as positive (P))	
EGLRSRSTRMSTVS [KIF2C_105_118_S106G, kinase substrate microarray peptide …]				P (Signal greater than 5% of the highest signal was defined as positive (P))		N (otherwise negative (N))	N (otherwise negative (N))	
GQRNISTLSTIQKLPRLLVASSS [WIPI1_313_335_C318S]	P (Signal greater than 5% of the highest signal was defined as positive)	P (Signal greater than 5% of the highest signal was defined as positive)			P (Signal greater than 5% of the highest signal was defined as positive)			O-GlcNAcylation by three isoforms was observed
TVAASPAASGAPTLSRLLEAGPT [BRD8_254_276]	P (Signal greater than 5% of the highest signal was defined as positive)	P (Signal greater than 5% of the highest signal was defined as positive)			P (Signal greater than 5% of the highest signal was defined as positive)			O-GlcNAcylation by three isoforms was observed
KWTKRTLSETSSS [KCNB1_489_501, kinase substrate microarray peptide …]				N (otherwise negative (N))		N (otherwise negative (N))	P (Signal greater than 5% of the highest signal was defined as positive (P))	
ERSKTVTSFYNQS [BCKD_45_57, kinase substrate microarray peptide …]				N (otherwise negative (N))		N (otherwise negative (N))	P (Signal greater than 5% of the highest signal was defined as positive (P))	
LVSPAMREAPTSLSQLLDNSGAP [NCOA6_1479_1501]	P (Signal greater than 5% of the highest signal was defined as positive)	P (Signal greater than 5% of the highest signal was defined as positive)			P (Signal greater than 5% of the highest signal was defined as positive)			O-GlcNAcylation by three isoforms was observed
QFPLPKNLLAKVIQIATSSSTA [DHX30_241_262]	N (otherwise negative)	N (otherwise negative)			P (Signal greater than 5% of the highest signal was defined as positive)			
TTSPTAATTQNPVLSKLLMADQD [LCOR_40_62]	N (otherwise negative)	N (otherwise negative)			P (Signal greater than 5% of the highest signal was defined as positive)			
QVEFRRLSISAES [KPB1_1011_1023, kinase substrate microarray peptide …]				N (otherwise negative (N))		P (Signal greater than 5% of the highest signal was defined as positive (P))	N (otherwise negative (N))	
HGEDFSKVSQNPILTSLLQITGNG [MED1_591_614]	N (otherwise negative)	P (Signal greater than 5% of the highest signal was defined as positive)			N (otherwise negative)			
PATSPKPSVASSQLALLLSSEAH [NRIP1_253_275_C263S]	N (otherwise negative)	P (Signal greater than 5% of the highest signal was defined as positive)			P (Signal greater than 5% of the highest signal was defined as positive)			

Continued, in another order:

OGT isoforms activity, s [1]	OGT isoforms activity, nc [3]	identification in microarray assay [4]	OGT isoforms activity, m [6]	Sequence	OGT isoforms activity, m [2]	OGT isoforms activity, s [5]	OGT isoforms activity, nc [7]	O-GlcNAcylation by three isoforms [4]
		not identified in our microarray assay		SDGDSKYSQTSHKLVQLLTTTAEQ [NCOA1_620_643]				
		not identified in our microarray assay		GTGGLSAVSSGPRLRLLLLESVS [PELP1_20_42]				
N (otherwise negative)	N (otherwise negative)			SPSQGAASRPAILYALLSSSLKA [NR0B2_9_31_C9S/C11S]	P (Signal greater than 5% of the highest signal was defined as positive)			
N (otherwise negative)	N (otherwise negative)			SQSTFNNPRPGQLGRLLPNQNLP [NCOA2_866_888]	P (Signal greater than 5% of the highest signal was defined as positive)			
N (otherwise negative)	N (otherwise negative)			GSDVHQDSIVLTYLEGLLMHQAA [NRIP1_8_30]	P (Signal greater than 5% of the highest signal was defined as positive)			
			N (otherwise negative (N))	DNTPHTPTPFKNA [MYBB_513_525, kinase substrate microarray peptide …]		P (Signal greater than 5% of the highest signal was defined as positive (P))	N (otherwise negative (N))	
N (otherwise negative)	N (otherwise negative)			DSVRKGKQDSTLLASLLQSFSSR [NRIP1_121_143_P124R]	P (Signal greater than 5% of the highest signal was defined as positive)			
